Reference: US20070212717A1, “Method for Inhibiting Hepatitis C Virus Replication” (priority 2006, published 2007)

Columns and labels:
[1] = test system: hepatitis C virus; settings: two day clinical trial; cited from earlier work
[2] = test system: PIK4CA transcript; assay: siRNA transfection of MP1 cells, real-time RT-PCR of PIK4CA transcript levels; format: cell-based, human
From the text: In order to confirm that knockdown of PI4K inhibits HCV RNA replication, an independent method of suppressing the host gene using siRNA synthetic oligonucleotides, is implemented. […] The effect is specific in that transfection of non-specific oligonucleotides elicits no effect on HCV RNA replication. For the siRNA oligo transfection experiments, the MP1 cells (human hepatoma Huh-7 cell line harboring HCV RNA replicon with a luciferase reporter gene, as described above) are also used. Cells are maintained in DMEM High glucose (Wisent Inc.) supplemented with 10% fetal bovine serum (FBS; HyClone) containing neomycin (250 μg/ml) (Geneticin; Invitrogen). The assay medium lacks the neomycin. […]
The negative control corresponds to a no match NS5B sequence (AAGAGAGUCAGUCAGCUAAUCAC) [SEQ ID NO. […] Moreover, RNA is also isolated (using the 96-well Qiagen extraction method as described in example 1) from a replicate plate of transfected cells such that real-time RT-PCR quantifying HCV replicon copy number (as described in example 1) and cellular transcript RNA levels are performed. The method of quantifying host transcript RNA levels is similar to HCV RNA quantification except that the primers and the TaqMan probe are specific for the PIK4CA gene. […]
A standard curve for a relative quantification of PIK4CA transcript expression per μg total RNA is established for each transcript. […]

[3] = test system: HCV RNA replicon; assay: siRNA transfection of MP1 cells, HCV replicon luciferase assay; format: cell-based, hepatitis C virus; settings: luciferase reporter or HCV RNA
Experimental: The “Luciferase assay system” from Promega is used to measure firefly luciferase (reporter) expression in the MP1 cell line in a 96-well format with the following protocol: • Prepare the Luciferase assay reagent by adding Luciferase assay buffer to the vial containing the lyophilized Luciferase assay substrate • Prepare 1× Luciferase cell culture lysis reagent by adding 4 volumes of water to 1 volume of 5× lysis buffer • Carefully remove the assay medium from cells • Rinse cells with 100 μl PBS buffer being careful to not dislodge attached cells • A black backing tape (Packard) is applied on bottom side of the 96-well black clear bottom plate. • Aliquot 30 μl/well of 1× Luciferase cell culture lysis reagent • Incubate at room temperature 10 minutes minimum • Aliquot 150 μl/well of Luciferase assay reagent and immediately measure the light produced on a TopCount NXT Instrument (Packard) (count time=2 s/well) […]
The negative control corresponds to a no match NS5B sequence (AAGAGAGUCAGUCAGCUAAUCAC) [SEQ ID NO. […] Moreover, RNA is also isolated (using the 96-well Qiagen extraction method as described in example 1) from a replicate plate of transfected cells such that real-time RT-PCR quantifying HCV replicon copy number (as described in example 1) and cellular transcript RNA levels are performed. […]

For COc1ccc2c(O[C@@H]3C[C@H]4C(=O)N[C@]5(C(=O)O)C[C@H]5/C=C\CCCCC[C@H](NC(=O)OC5CCCC5)C(=O)N4C3)cc(-c3csc(NC(C)C)n3)nc2c1 [BILN2061], the “viral loads in patients infected with the hepatitis C virus” value [1] is given as “effective in rapidly reducing viral loads” and the “effect on PIK4CA transcript levels” value ([2]; controls (siRNA 10 nM; BILN 2061 100 nM)) is given as “no effect”.

For “PIK4CA siRNA #9: siRNA (si Genome duplex, Dharmacon) with defined sequence # 9 targeting a segment on the host transcript (GCAGAAATTTGGCCTGTTT; listed as DNA, further chemistry not given here)”, the “inhibition of HCV replicon levels” value [3] was “proportionally lower inhibition” and the “reduction of PIK4CA transcript levels” value ([2]; 10 nM siRNA, RT-PCR, relative to DharmaFECT only) was about 25%.
